Measurements: patent US12521393B2, “Cytotoxicity targeting chimeras for CCR2-expressing cells” (GLAXOSMITHKLINE INTELLECTUAL PROPERTY DEVELOPMENT LIMITED, priority 2021, dated 2026)

Tests used:
[1] = system: endogenous target monocytes in human PBMC; assay: PBMC ex vivo monocyte depletion flow cytometry assay (Example 200); type: cell-based; conditions: with anti-cotinine antibody (SEQ ID NO: 11/12), 18-24 hours, EC50 in molar, read-out: Ex Vivo Depletion Assay pEC50 (converted)
In short: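 Monocyte depletion is reported as pEC50, averaged or given individually across runs, and read by flow cytometry staining CD45, CD14 and CD4 with a viability dye. Compounds, diluted four-fold over 11 points from 1 mM DMSO stocks, were combined with 30 μg/mL Fc-enhanced anti-cotinine antibody and human PBMC, then incubated 18-24 h at 37° C.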

[2] = system: CCR2 expressing cells (CD11b+Ly6c+Hi) in peripheral blood; assay: In vivo depletion assay, flow cytometry of peripheral blood (Example 201); parameters: species or system human CCR2 knock-in mice (C57 background); conditions: hCCR2 knock-in mice, IV 0.1 mpk compound + 10 mpk anti-cotinine antibody (SEQ ID NO: 13/14), peripheral blood at 48 hr
In short: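 Mice dosed with compound formulated in saline/DMSO/PBS, with anti-cotinine antibody (rabbit variable region, mouse IgG2a Fc) where required, pre-incubated 30 min at room temperature. Terminal peripheral blood RBC-lysed, Fc-blocked, stained for CD45, CD3, CD11b, Ly6C, human CCR2 and 7AAD; percent depletion of CD11b+Ly6c+Hi cells determined by flow cytometry.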

[3] = biological target: anti-cotinine antibody (SEQ ID NO: 11/12, rabbit variable region with human IgG1 Fc DE mutation); assay: SPR binding of anti-cotinine antibody to ARM compounds, Biacore T200, 37° C. (Example 202); conditions: SPR Biacore T200, 37° C., pH 7.4, antibody SEQ ID NO: 11/12 captured on protein A; Kd in molar
In short: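 Antibody captured on a protein A chip; ARM compounds injected at 100 μL/min (200 s association, 2000 s dissociation), 3-fold 5-point series from 200 nM, at 37 °C in HEPES pH 7.4 buffer with 0.005% P20 and 1% DMSO. Double-referenced sensorgrams fit 1:1 for kon, koff, Kd (koff/kon), residence time (1/koff); pKd averaged across runs.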

For `CC(C)N(C)[C@@H]1CC[C@H](N2CC[C@H](Nc3ncnc4ccc(C(F)(F)F)cc34)C2=O)[C@H](NC(=O)[C@H]2CC[C@@H](NC(=O)CCCO[C@H]3CC[C@@H](OCCNC(=O)[C@H]4CC(=O)N(C)[C@@H]4c4cccnc4)CC3)CC2)C1` [Example 3, (2S,3S)-N-(2-(((1S,4R)-4-(4-(((1S,4S)-4-(((1R,2S,5R)-5-(Isopropyl(methyl)amino)-2-((S)-2-oxo-3-((6-(trifluoromethyl)quinazolin-4-yl)amino)pyrrolidin-1-yl)cyclohexyl)carbamoyl)cyclohexyl)amino)-4-oxobutoxy)cyclohexyl)oxy)ethyl)-1-methyl-5-oxo-2-(pyridin-3-yl)pyrrolidine-3-carboxamide], which EC50 [1] is on record?
Its EC50 is 0.501 nM.

What about the “% Depletion of CCR2 expressing cells” value [2] of the same molecule?
Its value is 87%.

What about the “pKd of Antibody for ARM Compound of Formula (I)” value (“pKd of Antibody” below) [3] of the same molecule?
The value was 9.2795.

How did the EC50 [1] turn out when `CC(C)N(C)[C@@H]1CC[C@H](N2CC[C@H](Nc3ncnc4ccc(C(F)(F)F)cc34)C2=O)[C@H](NC(=O)[C@H]2CC[C@H](NC(=O)CCCO[C@H]3CC[C@@H](OCCNC(=O)[C@H]4CC(=O)N(C)[C@@H]4c4cccnc4)CC3)CC2)C1` [Example 4, (2S,3S)-N-(2-(((1S,4R)-4-(4-(((1R,4R)-4-(((1R,2S,5R)-5-(Isopropyl(methyl)amino)-2-((S)-2-oxo-3-((6-(trifluoromethyl)quinazolin-4-yl)amino)pyrrolidin-1-yl)cyclohexyl)carbamoyl)cyclohexyl)amino)-4-oxobutoxy)cyclohexyl)oxy)ethyl)-1-methyl-5-oxo-2-(pyridin-3-yl)pyrrolidine-3-carboxamide] was run?
The EC50 was 1 nM.

And the “% Depletion of CCR2 expressing cells” value [2]?
The value was 78.8%.

And the “pKd of Antibody” value [3]?
Its value is 9.526.

Which EC50 [1] does the source give for `CC(C)N(C)[C@@H]1CC[C@H](N2CC[C@H](Nc3ncnc4ccc(C(F)(F)F)cc34)C2=O)[C@H](NC(=O)CCOCCNC(=O)CCCO[C@H]2CC[C@@H](OCCNC(=O)[C@H]3CC(=O)N(C)[C@@H]3c3cccnc3)CC2)C1` [Example 6, (2S,3S)-N-(2-(((1s,4R)-4-(4-((2-(3-(((1R,2S,5R)-5-(Isopropyl(methyl)amino)-2-((S)-2-oxo-3-((6-(trifluoromethyl)quinazolin-4-yl)amino)pyrrolidin-1-yl)cyclohexyl)amino)-3-oxopropoxy)ethyl)amino)-4-oxobutoxy)cyclohexyl)oxy)ethyl)-1-methyl-5-oxo-2-(pyridin-3-yl)pyrrolidine-3-carboxamide] here?
Its EC50 is 0.2 nM.

And the “% Depletion of CCR2 expressing cells” value [2]?
The value was 82%.

What about the “pKd of Antibody” value [3] of the same molecule?
The value was 9.282.

`CC(C)N(C)[C@@H]1CC[C@H](N2CC[C@H](Nc3ncnc4ccc(C(F)(F)F)cc34)C2=O)[C@H](NC(=O)[C@H]2CC[C@H](CNC(=O)CCCC(=O)NCCCOCCCNC(=O)[C@H]3CC(=O)N(C)[C@@H]3c3cccnc3)CC2)C1` [Example 20, N1-(((1R,4r)-4-(((1R,2S,5R)-5-(Isopropyl(methyl)amino)-2-((S)-2-oxo-3-((6-(trifluoromethyl)quinazolin-4-yl)amino)pyrrolidin-1-yl)cyclohexyl)carbamoyl)cyclohexyl)methyl)-N5-(3-(3-((2S,3S)-1-methyl-5-oxo-2-(pyridin-3-yl)pyrrolidine-3-carboxamido)propoxy)propyl)glutaramide] was tested. Which EC50 [1] did it give?
The EC50 was 0.316 nM.

What about the “% Depletion of CCR2 expressing cells” value [2] of the same molecule?
Its value is 79%.

And the “pKd of Antibody” value [3]?
Its value is 8.8705.

Which results are given for `CN1C(=O)C[C@H](C(=O)NCCOCCOCCOCCC(=O)N[C@H]2CC[C@H](C(=O)N[C@@H]3C[C@H](NC(C)(C)C)CC[C@@H]3N3CC[C@H](Nc4ncnc5ccc(C(F)(F)F)cc45)C3=O)CC2)[C@H]1c1cccnc1` [Example 31, (2S,3S)-N-(2-(2-(2-(3-(((1S,4s)-4-(((1R,2S,5R)-5-(tert-Butylamino)-2-((S)-2-oxo-3-((6-(trifluoromethyl)quinazolin-4-yl)amino)pyrrolidin-1-yl)cyclohexyl)carbamoyl)cyclohexyl)amino)-3-oxopropoxy)ethoxy)ethoxy)ethyl)-1-methyl-5-oxo-2-(pyridin-3-yl)pyrrolidine-3-carboxamide]?
EC50 [1]: 3.16 nM; % Depletion of CCR2 expressing cells [2]: 94.9%; pKd of Antibody for ARM Compound of Formula (I) [3]: 9.3015

With `CC(C)N(C)[C@@H]1CC[C@H](N2CC[C@H](Nc3ncnc4ccc(C(F)(F)F)cc34)C2=O)[C@H](NC(=O)[C@H]2CC[C@H](CNC(=O)CCOCCOCCOCCNC(=O)[C@H]3CC(=O)N(C)[C@@H]3c3cccnc3)CC2)C1` [Example 32, (2S,3S)-N-(1-((1S,4s)-4-(((1R,2S,5R)-5-(Isopropyl(methyl)amino)-2-((S)-2-oxo-3-((6-(trifluoromethyl)quinazolin-4-yl)amino)pyrrolidin-1-yl)cyclohexyl)carbamoyl)cyclohexyl)-3-oxo-6,9,12-trioxa-2-azatetradecan-14-yl)-1-methyl-5-oxo-2-(pyridin-3-yl)pyrrolidine-3-carboxamide] as the molecule, how does the EC50 [1] read?
The EC50 was 0.398 nM.

And the “% Depletion of CCR2 expressing cells” value [2]?
The value was 83%.

And the “pKd of Antibody” value [3]?
Its value is 9.1825.

For `CC(C)N(C)[C@@H]1CC[C@H](N2CC[C@H](Nc3ncnc4ccc(C(F)(F)F)cc34)C2=O)[C@H](NC(=O)CCOCCNC(=O)CCOCCNC(=O)CCOCCNC(=O)[C@H]2CC(=O)N(C)[C@@H]2c2cccnc2)C1` [Example 46, (2S,3S)-N-(20-(((1R,2S,5R)-5-(Isopropyl(methyl)amino)-2-((S)-2-oxo-3-((6-(trifluoromethyl)quinazolin-4-yl)amino)pyrrolidin-1-yl)cyclohexyl)amino)-6,13,20-trioxo-3,10,17-trioxa-7,14-diazaicosyl)-1-methyl-5-oxo-2-(pyridin-3-yl)pyrrolidine-3-carboxamide], which EC50 [1] is on record?
Its EC50 is 0.501 nM.

What about the “% Depletion of CCR2 expressing cells” value [2] of the same molecule?
Its value is 96%.

What about the “pKd of Antibody” value [3] of the same molecule?
The value was 9.074.

Which EC50 [1] does the source give for `CC(C)N(C)[C@@H]1CC[C@H](N2CC[C@H](Nc3ncnc4ccc(C(F)(F)F)cc34)C2=O)[C@H](NC(=O)COCCNC(=O)CCOCCNC(=O)CCOCCNC(=O)[C@H]2CC(=O)N(C)[C@@H]2c2cccnc2)C1` [Example 47, (2S,3S)-N-(1-(((1R,2S,5R)-5-(Isopropyl(methyl)amino)-2-((S)-2-oxo-3-((6-(trifluoromethyl)quinazolin-4-yl)amino)pyrrolidin-1-yl)cyclohexyl)amino)-1,7,14-trioxo-3,10,17-trioxa-6,13-diazanonadecan-19-yl)-1-methyl-5-oxo-2-(pyridin-3-yl)pyrrolidine-3-carboxamide] here?
The EC50 was 0.316 nM.

And the “% Depletion of CCR2 expressing cells” value [2]?
Its value is 73%.

And the “pKd of Antibody” value [3]?
Its value is 9.051.

Which results are given for `CC(C)N(C)[C@@H]1CC[C@H](N2CC[C@H](Nc3ncnc4ccc(C(F)(F)F)cc34)C2=O)[C@H](NC(=O)[C@H]2C[C@@H](NC(=O)CCOC[C@H]3CC[C@H](COCCNC(=O)[C@H]4CC(=O)N(C)[C@@H]4c4cccnc4)CC3)C2)C1` [Example 55, (2S,3S)-N-(2-(((1S,4S)-4-((3-(((1S,3S)-3-(((1R,2S,5R)-5-(Isopropyl(methyl)amino)-2-((S)-2-oxo-3-((6-(trifluoromethyl)quinazolin-4-yl)amino)pyrrolidin-1-yl)cyclohexyl)carbamoyl)cyclobutyl)amino)-3-oxopropoxy)methyl)cyclohexyl)methoxy)ethyl)-1-methyl-5-oxo-2-(pyridin-3-yl)pyrrolidine-3-carboxamide]?
EC50 [1]: 0.126 nM; % Depletion of CCR2 expressing cells [2]: 76.2%; pKd of Antibody for ARM Compound of Formula (I) [3]: 9.4085

Which EC50 [1] does the source give for `CC(C)N(C)[C@@H]1CC[C@H](N2CC[C@H](Nc3ncnc4ccc(C(F)(F)F)cc34)C2=O)[C@H](NC(=O)[C@H]2CC[C@@H](NC(=O)CCCOC[C@H]3CC[C@@H](COCCNC(=O)[C@H]4CC(=O)N(C)[C@@H]4c4cccnc4)CC3)CC2)C1` [Example 61, (2S,3S)-N-(2-(((1S,4R)-4-((4-(((1S,4S)-4-(((1R,2S,5R)-5-(Isopropyl(methyl)amino)-2-((S)-2-oxo-3-((6-(trifluoromethyl)quinazolin-4-yl)amino)pyrrolidin-1-yl)cyclohexyl)carbamoyl)cyclohexyl)amino)-4-oxobutoxy)methyl)cyclohexyl)methoxy)ethyl)-1-methyl-5-oxo-2-(pyridin-3-yl)pyrrolidine-3-carboxamide] here?
Its EC50 is 0.316 nM.

What about the “% Depletion of CCR2 expressing cells” value [2] of the same molecule?
The value was 92%.

And the “pKd of Antibody” value [3]?
The value was 9.558.

Which results are given for `CC(C)N(C)[C@@H]1CC[C@H](N2CC[C@H](Nc3ncnc4ccc(C(F)(F)F)cc34)C2=O)[C@H](NC(=O)COCCNC(=O)CNC(=O)CCOCCOCCNC(=O)[C@H]2CC(=O)N(C)[C@@H]2c2cccnc2)C1` [Example 80, (2S,3S)-N-(1-(((1R,2S,5R)-5-(Isopropyl(methyl)amino)-2-((S)-2-oxo-3-((6-(trifluoromethyl)quinazolin-4-yl)amino)pyrrolidin-1-yl)cyclohexyl)amino)-1,7,10-trioxo-3,13,16-trioxa-6,9-diazaoctadecan-18-yl)-1-methyl-5-oxo-2-(pyridin-3-yl)pyrrolidine-3-carboxamide]?
EC50 [1]: 3.98 nM; % Depletion of CCR2 expressing cells [2]: 89%; pKd of Antibody for ARM Compound of Formula (I) [3]: 9.109
